The values that follow come from paper PMC3640384, “HPN, a Synthetic Analogue of Bromophenol from Red Alga Rhodomela confervoides: Synthesis and Anti-Diabetic Effects in C57BL/KsJ-db/db Mice” (Marine Drugs, 2013).

Each structure is given as a SMILES string. pIC50: −log10 of the molar value.

The target in the experiment is T1, protein tyrosine phosphatase 1B (PTP1B) (Homo sapiens, UniProt P18031).
T1 construct: gene PTPN1; Recombinant human GST-PTP1B (hGST-PTP1B)
T1 sequence (P18031 1-435): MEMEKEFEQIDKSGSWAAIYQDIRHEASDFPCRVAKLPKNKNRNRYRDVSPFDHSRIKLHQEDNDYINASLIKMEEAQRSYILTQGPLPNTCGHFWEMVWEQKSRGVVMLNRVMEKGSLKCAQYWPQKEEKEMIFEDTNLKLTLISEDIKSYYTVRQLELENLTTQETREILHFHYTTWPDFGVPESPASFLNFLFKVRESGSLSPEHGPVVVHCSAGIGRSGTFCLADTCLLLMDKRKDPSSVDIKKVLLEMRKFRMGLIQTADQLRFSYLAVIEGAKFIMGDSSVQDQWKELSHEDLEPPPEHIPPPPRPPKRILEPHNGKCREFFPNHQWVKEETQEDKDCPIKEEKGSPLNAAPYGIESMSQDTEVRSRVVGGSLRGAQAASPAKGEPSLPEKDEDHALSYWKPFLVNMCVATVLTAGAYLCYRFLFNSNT
Description: pNPP hydrolysis assay at […] nm with recombinant GST-PTP1B. It counts as biochemical.

The pIC50 is the IC50 on a negative log10 scale, so that one unit is a factor of ten.

Turning to `CC(C)OCc1cc(O)c(O)c(Br)c1Cc1cc(O)c(O)c(Br)c1Br` [HPN, 3,4-dibromo-5-(2-bromo-3,4-dihydroxy-6-(isopropoxymethyl)benzyl)benzene-1,2-diol], the pIC50 is 6.20.
